Where two headings read alike, the source gives them in different places.
How the values were obtained:
T-47D = assay: NCI screen, T-47D (Breast Cancer); type: cell-based, human
Method: (§1) The compounds of this invention were also tested against the panel of 60 human cancer cell lines at the National Cancer Institute, Bethesda, Md. […] The cytrotoxicity studies were conducted using a 48 hour exposure, and measuring the optical density of sulforhodamide B-derived color.

HL-60(TB) = type: cell-based
COLO 205 = assay: NCI screen, COLO 205 (Colon Cancer); type: cell-based, human
Method: as §1

[1] = system: PC3 (human prostate cancer cells); assay: SRB cytotoxicity on PC3 cells; type: cell-based
Method: Cells were seeded in 96-well microtiter plates at densities of 1000 cells/well. The optimal seeding density was determined to ensure exponential growth in control wells throughout the experimental period and to obtain a linear relationship between absorbance at 492 nm and cell number when analyzed by the sulforhodamine B (SRB) assay (43). 24 hours after seeding the cells were incubated for 1 hour or continuously for 3 days with the drugs (concentration range 0.01 to 500 μM). The cells were washed once and then incubated in drug free medium for 6 days. At the end of the incubation cell growth was determined by the SRB assay, which quantifies viable cells by measuring their total cellular protein content. […] Similar studies were conducted against the growth of PC3 (human prostate cancer cells) and MCF-7 (human breast cancer cells).

[2] = Log10 Concentration −4.3, 48 hour exposure
[3] = Log10 Concentration −5.3, 48 hour exposure
[4] = Log10 Concentration −6.3, 48 hour exposure
[5] = Log10 Concentration −7.3, 48 hour exposure
[6] = Log10 Concentration −8.3, 48 hour exposure

`COC(=O)c1[nH]c2c(O)cc(NC(=O)c3cc4cc(OC)c(OC)c(OC)c4[nH]3)c(CCCl)c2c1C(=O)OC` [Compound 22, Dimethyl 4-(2-chloroethyl)-7-hydroxy-5-(5,6,7-trimethoxyindole-2-carboxamido)indole-2,3-dicarboxylate] gave a CC50 (T-47D; Homo sapiens, T47D, 48 h, read-out: LC50) greater than 50 µM, a GI50 (T-47D; Homo sapiens, T47D, T-47D, 48 hour exposure) of 0.171 µM and a TGI (T-47D; T-47D, 48 hour exposure) greater than 5.00E−05 Molar. The “Percent Growth” value (T-47D; T-47D, Log10 Concentration −4.3, 48 hour exposure) was 14%, the “Percent Growth” value (T-47D; T-47D, Log10 Concentration −5.3, 48 hour exposure) was 33% and the “Percent Growth” value (T-47D; T-47D, Log10 Concentration −6.3, 48 hour exposure) was 29%. The “Percent Growth” value (T-47D; T-47D, Log10 Concentration −7.3, 48 hour exposure) was 74%, the “Percent Growth” value (T-47D; T-47D, Log10 Concentration −8.3, 48 hour exposure) was 100% and the TGI (HL-60(TB); 48 hour exposure) was greater than 5.00E−05 Molar. The “Percent Growth” value (HL-60(TB); [2]) was 3%, the “Percent Growth” value (HL-60(TB); [3]) was 9% and the “Percent Growth” value (HL-60(TB); [4]) was 10%. For the same compound, the “Percent Growth” value (HL-60(TB); [5]) was 54%, the “Percent Growth” value (HL-60(TB); [6]) was 85% and the TGI (COLO 205; 48 hour exposure) was greater than 5.00E−05 Molar. For the same compound, the “Percent Growth” value (COLO 205; [2]) was 20%, the “Percent Growth” value (COLO 205; [3]) was 23% and the “Percent Growth” value (COLO 205; [4]) was 31%. The “Percent Growth” value (COLO 205; [5]) was 88% and the “Percent Growth” value (COLO 205; [6]) was 95%.

`O=C(Nc1cc(O)ccc1CCCl)c1cc2cc(NC(=O)c3cc4ccccc4o3)ccc2[nH]1` [Compound 1, 4-(2-Chloroethyl)-3-[5-(5-benzofuran-2-carboxamido)indole-2-carboxamido]phenol] gave a CC50 (SR) greater than 100 µM, an IC50 ([1]; continuous exposure, read-out: IC50 PC3 Continuous exposure) of 3 µM and an IC50 ([1]; read-out: IC50 PC3 1 hour exposure, 1 hour exposure) of 82.4 µM.
